A short description of the assay: Cleave kinetics of 3′-O-capped nucleotide in cleave mix, monitored by UPLC. In kind it is physicochemical. As to conditions: 10 mM Mg2+ in the cleave mix versus none; 20 mM DMPS, pH 9.5. The method, then:
A 3′-O-capped nucleotide was treated with a cleave mix DMPS/THPP and the concentration of the 3′-capped nucleotide was monitored by UPLC with a UV detector at a fixed time interval.
In [A]=−kt+In[A]0 and t1/2=In2/k with [A]: reactant concentration; k: reaction rate coefficient
Nucleotide: MeSSdATP, 4.7 mM in 1× TE buffer;
12.8 μL of nucleotide was added to 287 μL of cleave mix in a 1.5 mL of UPLC sample vial. The resulting mixture was analyzed by UPLC right away and every 10 min afterwards automatically for up to 120 min. The area of the starting nucleotide peak was measured at each time point and the value was used directly for the calculation. From the rate of peak area reduction or disappearance of the intermediate the rate constant and the half-life of the intermediate calculated as discussed earlier.

Turning to `CSSCO[C@H]1C[C@H](n2cnc3c(N)ncnc32)O[C@@H]1COP(=O)(O)OP(=O)(O)OP(=O)(O)O` [MeSSdATP, 3′-O—(MeSSCH2)-dATP], the reduction of half-life is given as not above 30%.

For the origin of these results see patent publication US20250154546A1, “USE OF 3'-OXYMETHYLENE ALKYL DISULFIDE PROTECTED NUCLEOTIDES FOR ENZYMATIC DNA AND RNA SYNTHESIS” (Miltenyi Biotec B.V. & Co. KG, priority 2022, published 2025).
